This note sets out measurements from patent US8383581B2, “Short-chain peptides as parathyroid hormone (PTH) receptor agonist” (Cadila Healthcare Limited, priority 2009, dated 2013).

Where a SMILES comes first, the peptide text is derived from it. [ ]: non-standard residue; d: D form. ξ: configuration not given here. ξBip(2'-Et-4'-OMe) = CCc1cc(OC)ccc1-c1ccc(CC(N)C(=O)O)cc1; Arg(NO2) = N=C(NCCC[C@H](N)C(=O)O)N[N+](=O)[O-]; ξαMePhe(2,6-F2) = CC(N)(Cc1c(F)cccc1F)C(=O)O; ξαMePhe(2-F) = CC(N)(Cc1ccccc1F)C(=O)O; hArg = N=C(N)NCCCC[C@H](N)C(=O)O; hCit = NC(=O)NCCCC[C@H](N)C(=O)O; Cit = NC(=O)NCCC[C@H](N)C(=O)O; ξhhPhe = NC(CCCc1ccccc1)C(=O)O; ξαMeF = CC(N)(Cc1ccccc1)C(=O)O; Nle = CCCC[C@H](N)C(=O)O; ξαMeP = CC1(C(=O)O)CCCN1; Ac5c = NC1(C(=O)O)CCCC1; Aib = CC(C)(N)C(=O)O

This test has as its system ovariectomised (OVX) rats. The experiment in a line: In vivo anti-osteoporosis activity testing in OVX rat model (serum calcium, phosphate, bone parameters). Set-up: species or system Female Wistar Rats. The conditions noted are these: po. From the text:
c) In Vivo Anti-Osteoporosis Activity Testing in OVX Rat Model: The ovariectomised (OVX) rats were used to study anti-osteoporosis activity of test compounds (short-chain peptides) in vivo. The OVX rats develop osteopenia due to ovarian hormone deficiency. Osteopenia can be detected as early as 14 days post OVX, increase for the next 100 days and then stabilised (Wronski T. J., et al., Calcif. Tissue Int., 43(3), 1988, 179-183). Detailed Study Protocol to Evaluate the Effects of Anabolic Therapy on Bone Markers and Histomorphometry in OVX Animals: 10 to 11 weeks old Female Wistar Rats (150-200 g) were used. The animals were kept in individually ventilated cages in a room with controlled temperature (23°±3° C.), lighting (12:12 h light-dark cycle) and relative humidity (55±10%). Animals had free access to standard rat chow and water. Protocol for use of animals for conducting this study has been reviewed and approved by Institutional Animal Ethics Committee (IAEC). The animals were marked with picric acid for identification and acclimatized to experimental room conditions for 2 days prior to initiation of the study. For the induction of osteoporosis, rats were bilaterally ovariectomised under anesthesia. For Ovariectomy, Incision was made on dorsa-lateral side near lumbar region of animal. After that, ovary was excised and the veins were tied with ligature before removing ovary to prevent blood loss. Then incision was sutured back with ligature. After Bilateral ovariectomy, animals were allowed to rest for 4 weeks. They were then divided into different groups (n=9) based on their body weight. The groups consisted of a no treatment control, PTH as standard and one or two groups of test compounds (short-chain peptides). The treatment was given for the duration of 6 weeks. At the last day of treatment animals were kept overnight in metabolic cages under fasting for the collection of Urine. Next day, blood was collected after 24 hours of last dosing and animals were sacrificed. Changes in biochemical parameters and bone turnover parameters (Increase in serum Calcium and decrease in Phosphate levels, Acid Phosphatase and TRAP) were evaluated in the urine and serum. After sacrificing, intact femur and tibial bones are removed and cleaned from adherent tissues, muscles and tendons; weighed and collected in formal saline (10% formaldehyde solution). Lumbar vertebra (L5) was excised, carefully cleaned and collected in formal saline. Femur, tibia and Lumbar vertebra-5 (L5) were later processed for histomorphometric evaluation (Zhang L., et al., Tohoku J Exp Med., 1998, 186(2), 131-41; Tanizawa T., et al., Toxicol Lett., 1998, 102, 399-403).

In the case of `CCCC[C@H](NC(=O)C(C)(Cc1c(F)cccc1F)NC(=O)[C@H](CCC(N)=O)NC(=O)[C@@H](NC(=O)[C@H](CCC(=O)O)NC(=O)C(C)(C)NC(=O)[C@@H](NC(=O)C1(N)CCCC1)C(C)C)[C@@H](C)CC)C(=O)N[C@@H](Cc1c[nH]cn1)C(=O)N[C@@H](CCC(N)=O)C(=O)NC(C)(Cc1c(F)cccc1F)C(=O)N[C@@H](C)C(=O)NC(C)(Cc1c(F)cccc1F)C(=O)NC(C)(Cc1ccccc1F)C(N)=O` (stereo partly shown) [Seq. ID. 511] (H-[Ac5c]V[Aib]EIQ[ξαMePhe(2,6-F2)][Nle]HQ[ξαMePhe(2,6-F2)]A[ξαMePhe(2,6-F2)][ξαMePhe(2-F)]-NH2), for the setting “1 mg/kg”, the “% decrease in serum PO4 Levels (mg/dl) vs control” value (“% decrease in serum PO4 Levels” below) is given as 88% and the “% increase in serum Ca^2+ Levels (mg/dl) vs control” value (“% increase in serum Ca^2+ Levels” below) was found to be 84%.
In the case of `CC[C@H](C)[C@H](NC(=O)[C@H](CCC(=O)O)NC(=O)C(C)(C)NC(=O)[C@@H](NC(=O)C(C)(C)N)C(C)C)C(=O)N[C@@H](CCC(N)=O)C(=O)N[C@@H](CC(C)C)C(=O)N[C@@H](CCSC)C(=O)N[C@@H](Cc1c[nH]cn1)C(=O)N[C@@H](CCC(N)=O)C(=O)N[C@@H](CCCCNC(=N)N)C(=O)N1CCCC1(C)C(=O)N[C@@H](CCCCN)C(=O)NC(C)(Cc1ccccc1)C(N)=O` (stereo partly shown) [Seq. ID. 7] (H-[Aib]V[Aib]EIQLMHQ[hArg][ξαMeP]K[ξαMeF]-NH2), under “1 mg/kg”, the “% decrease in serum PO4 Levels” value amounted to 88% and the “% increase in serum Ca^2+ Levels” value came to 90%.
In the case of `CCCC[C@H](NC(=O)[C@H](CC(C)C)NC(=O)[C@H](CCC(N)=O)NC(=O)[C@@H](NC(=O)[C@H](CCC(=O)O)NC(=O)C(C)(C)NC(=O)[C@@H](NC(=O)C1(N)CCCC1)C(C)C)[C@@H](C)CC)C(=O)N[C@@H](Cc1c[nH]cn1)C(=O)N[C@@H](CCC(N)=O)C(=O)N[C@@H](CCCCNC(=N)N)C(=O)N[C@@H](C)C(=O)N[C@@H](CCCNC(=N)N[N+](=O)[O-])C(=O)NC(Cc1ccc(-c2ccc(OC)cc2CC)cc1)C(=O)NC(CCCc1ccccc1)C(N)=O` (stereo partly shown) [Seq. ID. 686] (H-[Ac5c]V[Aib]EIQL[Nle]HQ[hArg]A[Arg(NO2)][ξBip(2'-Et-4'-OMe)][ξhhPhe]-NH2), under “3 mg/kg”, the “% decrease in serum PO4 Levels” value is reported as 80% and the “% increase in serum Ca^2+ Levels” value is reported as 84%.
Consider `CCCC[C@H](NC(=O)C(C)(Cc1c(F)cccc1F)NC(=O)[C@H](CCC(N)=O)NC(=O)[C@@H](NC(=O)[C@H](CCC(=O)O)NC(=O)C1(NC(=O)[C@@H](NC(=O)C2(N)CCCC2)C(C)C)CCCC1)[C@@H](C)CC)C(=O)N[C@@H](Cc1c[nH]cn1)C(=O)N[C@@H](CCC(N)=O)C(=O)N[C@@H](CCCCNC(=N)N)C(=O)NC(C)(C)C(=O)N[C@@H](CCCNC(N)=O)C(=O)NC(C)(Cc1c(F)cccc1F)C(N)=O` (stereo partly shown) [Seq. ID. 158] (H-[Ac5c]V[Ac5c]EIQ[ξαMePhe(2,6-F2)][Nle]HQ[hArg][Aib][Cit][ξαMePhe(2,6-F2)]-NH2), for which, where the note is “0.1 mg/kg”, the “% decrease in serum PO4 Levels” value turned out to be 82% and the “% increase in serum Ca^2+ Levels” value was 100%.
Regarding `CCCC[C@H](NC(=O)C(C)(Cc1c(F)cccc1F)NC(=O)[C@H](CCC(N)=O)NC(=O)[C@@H](NC(=O)[C@H](CCC(=O)O)NC(=O)C(C)(C)NC(=O)[C@@H](NC(=O)C(C)(C)N)C(C)C)[C@@H](C)CC)C(=O)N[C@@H](Cc1c[nH]cn1)C(=O)N[C@@H](CCC(N)=O)C(=O)N[C@@H](CCCCNC(N)=O)C(=O)N[C@@H](C)C(=O)N[C@@H](CCCNC(=N)N[N+](=O)[O-])C(=O)NC(C)(Cc1c(F)cccc1F)C(N)=O` (stereo partly shown) [Seq. ID. 469] (H-[Aib]V[Aib]EIQ[ξαMePhe(2,6-F2)][Nle]HQ[hCit]A[Arg(NO2)][ξαMePhe(2,6-F2)]-NH2), for the setting “0.01 mg/kg”, the “% decrease in serum PO4 Levels” value is recorded as 65% and the “% increase in serum Ca^2+ Levels” value was determined as 43%.
Regarding `CCCC[C@H](NC(=O)C(C)(Cc1c(F)cccc1F)NC(=O)[C@H](CCC(N)=O)NC(=O)[C@@H](NC(=O)[C@H](CCC(=O)O)NC(=O)C(C)(C)NC(=O)[C@@H](NC(=O)C(C)(C)N)C(C)C)[C@@H](C)CC)C(=O)N[C@@H](Cc1c[nH]cn1)C(=O)N[C@@H](CCC(N)=O)C(=O)N[C@@H](CCCCNC(=N)N)C(=O)N1CCCC1(C)C(=O)N[C@@H](CCCCN)C(=O)NC(C)(Cc1ccccc1F)C(N)=O` (stereo partly shown) [Seq. ID. 72] (H-[Aib]V[Aib]EIQ[ξαMePhe(2,6-F2)][Nle]HQ[hArg][ξαMeP]K[ξαMePhe(2-F)]-NH2), under “0.01 mg/kg”, the “% decrease in serum PO4 Levels” value came to 77% and the “% increase in serum Ca^2+ Levels” value is 49%.
As to `CCCC[C@H](NC(=O)C(C)(Cc1c(F)cccc1F)NC(=O)[C@H](CCC(N)=O)NC(=O)[C@@H](NC(=O)[C@H](CCC(=O)O)NC(=O)C1(NC(=O)[C@@H](NC(=O)C2(N)CCCC2)C(C)C)CCCC1)[C@@H](C)CC)C(=O)N[C@@H](Cc1c[nH]cn1)C(=O)N[C@@H](CCC(N)=O)C(=O)N[C@@H](CCCCNC(=N)N)C(=O)NC(C)(C)C(=O)N[C@@H](CCCCN)C(=O)NC(C)(Cc1c(F)cccc1F)C(N)=O` (stereo partly shown) [Seq. ID. 117] (H-[Ac5c]V[Ac5c]EIQ[ξαMePhe(2,6-F2)][Nle]HQ[hArg][Aib]K[ξαMePhe(2,6-F2)]-NH2), where the note is “3 mg/kg”, the “% decrease in serum PO4 Levels” value came out at 99% and the “% increase in serum Ca^2+ Levels” value is recorded as 110%.
With `CCCC[C@H](NC(=O)C(C)(Cc1c(F)cccc1F)NC(=O)[C@H](CCC(N)=O)NC(=O)[C@@H](NC(=O)[C@H](CCC(=O)O)NC(=O)C(C)(C)NC(=O)[C@@H](NC(=O)C1(N)CCCC1)C(C)C)[C@@H](C)CC)C(=O)N[C@@H](Cc1c[nH]cn1)C(=O)N[C@@H](CCC(N)=O)C(=O)N[C@@H](CCCNC(N)=O)C(=O)N[C@@H](C)C(=O)NC(C)(C)C(=O)NC(Cc1ccc(-c2ccc(OC)cc2CC)cc1)C(=O)NC(CCCc1ccccc1)C(N)=O` (stereo partly shown) [Seq. ID. 847] (H-[Ac5c]V[Aib]EIQ[ξαMePhe(2,6-F2)][Nle]HQ[Cit]A[Aib][ξBip(2'-Et-4'-OMe)][ξhhPhe]-NH2), for the setting “0.5 mg/kg”, the “% decrease in serum PO4 Levels” value is 79% and the “% increase in serum Ca^2+ Levels” value stood at 77%.
